Measurements published in article PMC9866588, “Novel 7-Chloro-4-aminoquinoline-benzimidazole Hybrids as Inhibitors of Cancer Cells Growth: Synthesis, Antiproliferative Activity, in Silico ADME Predictions, and Docking” (Molecules, 2023).
Counter-ions that a name gives are not always drawn. Like-named read-outs stand apart in the source and are kept apart here.

What was measured:
[1] = system: HeLa (human cervical adenocarcinoma) cells; experiment: MTT antiproliferative assay, HeLa; format: cell-based; details: 72 h, mean ± SD of three independent experiments
Description: (§1) The growth inhibition activity was assessed according to the slightly modified procedure performed at the National Cancer Institute, Developmental Therapeutics Program.
(§2) The examined compounds were dissolved in DMSO (1 × 10^−2 M). The experiments were carried out on seven human tumor cell lines and a normal cell line. The following cell lines were used: HeLa (human cervical adenocarcinoma; purchased from ATCC), CaCo-2 (human colorectal adenocarcinoma), MCF-7 (human breast adenocarcinoma), CCRF-CEM (human acute lymphoblastic leukemia), Hut78 (T-cell lymphoma), THP-1 (acute monocytic leukemia), Burkitt lymphoma (Raji), and MDCK1 (Madine–Darby canine kidney). The MDCK1 cells were used between 24 and 26 passages.
(§3) The adherent cells were cultured in Dulbecco’s modified Eagle medium—DMEM (Gibco, Termo Fisher Scientific Inc., Leicestershire, England, UK), supplemented with 10% heat-inactivated fetal bovine serum (FBS, Gibco, Termo Fisher Scientific Inc., Leicestershire, England, UK), 2 mM glutamine, and 100U/0.1mg penicillin/streptomycin. The cells in suspension were cultured in RPMI 1640 (Gibco, Termo Fisher Scientific Inc., Leicestershire, England, UK) medium, supplemented with 10% FBS (Gibco, Termo Fisher Scientific Inc., Leicestershire, England, UK), 2 mM glutamine, 1 mM sodium pyruvate, and 10 mM HEPES. The cells were grown in a humidified atmosphere under the conditions of 37 °C/5% of CO2 gas in the CO2 incubator (IGO 150 CELLlife^TM, JOUAN, Thermo Fisher Scientific, Waltham, MA, USA).
(§4) The adherent cells (HeLa, CaCo-2, MCF-7, and MDCK-1) were plated in 96-well flat bottom plates (Greiner, Frickenhausen, Austria) at a concentration of 2 × 10^4 cells/mL. The suspension cells (Raji, THP-1, CCRF-CEM and Hut78) were plated in 96-well microtiter plates (Sarstead, Newton, NC, USA) at a concentration of 1 × 10^5 cells/mL. Twenty-four hours later, the cells were treated with test agents in […] and incubated for a further 72 h. The working dilutions were freshly prepared on the day of testing. The solvent was also tested for eventual inhibitory activity by adjusting its concentration to be the same as in the working concentrations. After 72 h of incubation, the cell growth rate was evaluated by performing the MTT assay, which detects dehydrogenase activity in viable cells. For this purpose, upon completion of the incubation period, the growth medium was discarded and 50 μL of MTT was added to each well at a concentration of 5 mg/mL. After four hours of incubation at 37 °C, the water insoluble MTT-formazan crystals were dissolved in 150 μL of dimethyl-sulfoxide (DMSO) for the adherent cells and in 10% SDS with 0.01 mol/L HCl for the cells grown in suspension. The absorbance (OD, optical density) was measured on a microplate reader (iMark, BIO RAD, Hercules, CA, USA) at 595 nm.
(§5) The percentage of live cells was calculated as follows: % = OD (sample) − OD (background)/OD (control) − OD (background) × 100.
(§6) The optical density (OD) of the background for the adherent cells is the OD of the MTT solution and DMSO; the OD (background) for the suspension cells is the OD of the culture medium with MTT and 10% SDS with 0.01 mol/L HCl; the OD (control) is the OD of the cells grown without the tested compounds.
(§7) The calculation of the GI50 value curves and QC analysis was performed using the Excel tools and GraphPadPrism software (La Jolla, CA, USA), v. 5.03. Briefly, individual concentration effect curves are generated by plotting the logarithm of the concentration of the tested compounds (X) vs. the corresponding percent inhibition values (Y) using the least squares fit. The best-fit GI50 values are calculated using log (inhibitor) versus normalized response—variable slope equation, where Y Ľ 100/(1 ţ 10 ((LogIC50 _ X) × HillSlope)). The QC criteria parameters (Z0, S:B, R2, HillSlope) were checked for every GI50 curve.

[2] = system: MDCK1 (Madine–Darby canine kidney) cells; experiment: MTT antiproliferative assay, MDCK1; format: cell-based; details: mean ± SD of three independent experiments
Description: as §1, §2, §3, §4, §5, §6, §7

[3] = system: Raji (Burkitt lymphoma) cells; experiment: MTT antiproliferative assay, Raji; format: cell-based, human; details: Homo sapiens, Raji; 72 h, MTT, mean ± SD of three independent experiments
Description: as §1, §2, §3, §4, §5, §6, §7

[4] = system: CCRF-CEM (human acute lymphoblastic leukemia) cells; experiment: MTT antiproliferative assay, CCRF-CEM; format: cell-based; details: Homo sapiens, CCRF-CEM; 72 h, MTT, mean ± SD of three independent experiments
Description: as §1, §2, §3, §4, §5, §6, §7

[5] = system: Hut78 (T-cell lymphoma) cells; experiment: MTT antiproliferative assay, HuT78; format: cell-based, human; details: Homo sapiens, HuT78; 72 h, MTT, mean ± SD of three independent experiments
Description: as §1, §2, §3, §4, §5, §6, §7

[6] = system: CaCo-2 (human colorectal adenocarcinoma) cells; experiment: MTT antiproliferative assay, CaCo-2; format: cell-based; details: 72 h, mean ± SD of three independent experiments
Description: as §1, §2, §3, §4, §5, §6, §7

[7] = system: MCF-7 (human breast adenocarcinoma) cells; experiment: MTT antiproliferative assay, MCF-7; format: cell-based; details: MCF7, 72 h, mean ± SD of three independent experiments
Description: as §1, §2, §3, §4, §5, §6, §7

[8] = system: THP-1 (acute monocytic leukemia) cells; experiment: MTT antiproliferative assay, THP-1; format: cell-based, human; details: Homo sapiens, THP-1; 72 h, MTT, mean ± SD of three independent experiments; read-out: GI50 THP1
Description: as §1, §2, §3, §4, §5, §6, §7

[9] = system: normal (MDCK1) and tumor cell lines; experiment: MTT antiproliferative assay, ranges stated over several cell lines; format: cell-based; details: for GI50: MDCK1
Description: as §1, §2, §3, §4, §5, §6, §7

[10] = Canis lupus familiaris, MDCK1, 72 h

Compound | GI50 [1] [µM] | GI50 [2, 10] [µM] | GI50 [3] [µM] | GI50 [4] [µM] | GI50 [5] [µM] | GI50 [6] [µM] | GI50 [7] [µM] | GI50 [8] [µM] | GI50 ([2]; 72 h) [µM] | GI50 ([9]; range over tumor cell lines, read-out: GI50 range, tumor cell lines) [µM] | GI50 / inhibitory potential, normal and tumor cells ([9]; over all tested cell lines) | GI50 ([9]; leukemia and lymphoma cell lines, read-out: GI50 range, leukemia and lymphoma cells) [µM]
O=c1[nH]cc(F)c(=O)[nH]1 [Compound 5-FU, 5-Fluorouracil, reference compound] | 8.2 ± 1.9 | 74 ± 3.1 | > 100 | > 50 | > 100 | 5.9 ± 0.7 | 30.2 ± 4.7 | 76.3 ± 0.5 |  |  |  | 
N=C(N)c1ccc2[nH]c(-c3cccc(Nc4ccnc5cc(Cl)ccc45)c3)nc2c1 [Compound 5a, 2-(3-(7-chloroquinolin-4-ylamino)phenyl)-1H-benzo[d]imidazole-5-carboximidamide trihydrochloride] | > 100 | > 100 | > 100 | > 100 | > 100 | > 100 | > 100 | > 100 |  |  |  | 
CC(C)NC(=N)c1ccc2[nH]c(-c3cccc(Nc4ccnc5cc(Cl)ccc45)c3)nc2c1 [Compound 5b, 2-(3-(7-chloroquinolin-4-ylamino)phenyl)-N-isopropyl-1H-benzo[d]imidazole-5-carboximidamide trihydrochloride] | > 100 | > 100 | > 100 | > 100 | 41.8 ± 8.2 | > 100 | > 100 | > 100 |  |  |  | 
Clc1ccc2c(Nc3cccc(-c4nc5cc(C6=NCCN6)ccc5[nH]4)c3)ccnc2c1 [Compound 5c, 7-chloro-N-(3-(5-(4,5-dihydro-1H-imidazol-2-yl)-1H-benzo[d]imidazol-2-yl)phenyl)quinolin-4-amine trihydrochloride] | > 100 | > 100 | > 100 | > 100 | 66.2 ± 14.6 | > 100 | > 100 | > 100 |  |  |  | 
Clc1ccc2[nH]c(-c3cccc(Nc4ccnc5cc(Cl)ccc45)c3)nc2c1 [Compound 5e, 7-chloro-N-(3-(5-chloro-1H-benzo[d]imidazol-2-yl)phenyl)quinolin-4-amine] | 11.8 ± 1.2 | 11.4 to 20.4 | 5.4 ± 2 | 15.6 ± 3.4 | 6.7 ± 0.5 | 1.1 ± 0.1 | 11.1 ± 1.6 | 2.1 ± 0.9 | 11.4 ± 6.2 | 0.4 to 15.6 | strong antiproliferative activity | 
N=C(N)c1ccc2[nH]c(-c3ccc(N4CCN(c5ccnc6cc(Cl)ccc56)CC4)cc3)nc2c1 [Compound 8a, 2-(4-(4-(7-chloroquinolin-4-yl)piperazin-1-yl)phenyl)-1H-benzo[d]imidazole-5-carboxamidine dihydrochloride] | 36.3 ± 9.6 | 42.7 ± 10.8 | 37.7 ± 8.6 | 32.1 ± 3.8 | 20.2 ± 6.1 | > 100 | 20.7 ± 8.6 | > 100 |  |  |  | 
CC(C)NC(=N)c1ccc2[nH]c(-c3ccc(N4CCN(c5ccnc6cc(Cl)ccc56)CC4)cc3)nc2c1 [Compound 8b, 2-(4-(4-(7-chloroquinolin-4-yl)piperazin-1-yl)phenyl)-N-isopropyl-1H-benzo[d]imidazole-5-carboxamidine dihydrochloride] | 21 ± 1.9 | 58.8 ± 9.8 | 42.9 ± 8.8 | 39.6 ± 9.2 | 26.2 ± 1.6 | 100 | 30.9 ± 2.7 | > 100 |  |  |  | 
Clc1ccc2c(N3CCN(c4ccc(-c5nc6cc(C7=NCCN7)ccc6[nH]5)cc4)CC3)ccnc2c1 [Compound 8c, 7-chloro-4-(4-(4-(5-(4,5-dihydro-1H-imidazol-2-yl)-1H-benzo[d]imidazol-2-yl)phenyl)piperazin-1-yl)quinoline dihydrochloride] | 41.8 ± 8.4 | 30.1 ± 5 | 43.9 ± 16.2 | 25.4 ± 11.5 | 27.6 ± 4.7 | 100 | 24.8 ± 2.2 | 71.3 ± 11.4 |  |  |  | 
Clc1ccc2[nH]c(-c3ccc(N4CCN(c5ccnc6cc(Cl)ccc56)CC4)cc3)nc2c1 [Compound 8e, 7-chloro-4-(4-(4-(5-chloro-1H-benzo[d]imidazol-2-yl)phenyl)piperazin-1-yl)quinoline] | 100 | 2.7 ± 0.3 | 13.4 ± 2.6 | 41 ± 0.5 | 15.6 ± 9.8 | > 100 | 84 ± 7.7 | 22.3 ± 7.4 |  |  |  | 13.4 to 41
N=C(N)c1ccc2[nH]c(-c3ccc(C(=O)NCCNc4ccnc5cc(Cl)ccc45)cc3)nc2c1 [Compound 12a, 4-(5-carbamimidoyl-1H-benzo[d]imidazol-2-yl)-N-(2-(7-chloroquinolin-4-ylamino)ethyl)benzamide trihydrochloride] | 11.1 ± 3.8 | 21.6 ± 3.2 | 8.9 ± 3.3 | 20 ± 6.8 | 4.1 ± 2 | 24.7 ± 6.2 | 39.1 ± 5.6 | > 100 |  |  |  | 
CC(C)NC(=N)c1ccc2[nH]c(-c3ccc(C(=O)NCCNc4ccnc5cc(Cl)ccc45)cc3)nc2c1 [Compound 12b, 4-(5-(N-isopropylcarbamimidoyl)-1H-benzo[d]imidazol-2-yl)-N-(2-(7-chloroquinolin-4-ylamino)ethyl)benzamide trihydrochloride] | 100 | 42.9 ± 5.1 | 12.8 ± 3.7 | 43.3 ± 17.5 | 5.6 ± 2.7 | 38.7 ± 12.4 | 100 | 100 |  |  |  | 
O=C(NCCNc1ccnc2cc(Cl)ccc12)c1ccc(-c2nc3cc(C4=NCCN4)ccc3[nH]2)cc1 [Compound 12c, N-(2-(7-chloroquinolin-4-ylamino)ethyl)-4-(5-(4,5-dihydro-1H-imidazol-2-yl)-1H-benzo[d]imidazol-2-yl)benzamide trihydrochloride] | 33.2 ± 5.8 | 39.6 ± 2.2 | 20.8 ± 1.8 | 56.3 ± 9 | 4.4 ± 1 | 52 ± 9.1 | 100 | > 100 |  |  |  | 
